target: T1, CDK7/CycH/Mat1 (Homo sapiens, UniProt P50613); experiment: CDK7 Enzymatic Activity Assay (Lance Kinase Activity Assay, FRET); type: biochemical; settings: Table 5A; 25 μM ATP final; read-out: CDK7: IC50 [mM] for CDK7 inhibition (the above defined ranges apply)
T1 construct: purchased Carna
Protocol: This protocol describes how the Lance Kinase Activity Assay was performed to determine IC50 values of compounds of general formula (I) against CDK/Cyclin complexes. The principle behind this enzymatic assay is based upon the phosphorylation of the Ulight-Peptide Substrat. It is detected by using a specific EU-labeled anti-phospho peptide antibody.
Binding of an inhibitor to the kinase prevents phosphorylation of the ULlight-MBP Substrat, resulting in a loss of FRET.
CDK7 Enzymatic Activity Assay
The compounds of general formula (I) exemplary summarized in Table 1 were diluted from a 10 mM DMSO stock solution 1:10 in a total volume of 15 μl DMSO. This compound predilution was then serial diluted 1:3 over 8 steps in DMSO and briefly spun down. Each compound solution was now diluted 1:20 in Enzymatic Buffer (HEPES: 50 mM, pH: 7.5; MgCl2: 10 mM; EGTA: 1 mM; DTT: 2 mM; Tween-20: 0.01%), mixed thoroughly and spun down.
For positive controls, 2 μl of DMSO working solution were mixed with 6 μl CDK7/CycH/Mat1/substrate working solution and 2 μl ATP working solution. Positive and negative controls were calculated from at least 8 different wells. The 384 well plates were mixed in a Teleshaker plate mixer (Beckman Coulter, Brea, Calif., USA) at 2000 rpm for 40 sec, and incubated for 1 h at room temperature before addition of 10 μl LANCE Detection Buffer (1×; EDTA: […]; Eu-Anti-P-MBP: 4 nM) per well. Plates were mixed in a Teleshaker plate mixer (Beckman Coulter, Brea, Calif., USA) at 2000 rpm for 40 sec, followed by incubation with Detection Buffer for 1 h, and reading. […] IC50 values were determined from the sigmoidal dose response curves with the software Quattro Workflow (Quattro GmbH, Munich, Germany).

T1 sequence (P50613 whole entry): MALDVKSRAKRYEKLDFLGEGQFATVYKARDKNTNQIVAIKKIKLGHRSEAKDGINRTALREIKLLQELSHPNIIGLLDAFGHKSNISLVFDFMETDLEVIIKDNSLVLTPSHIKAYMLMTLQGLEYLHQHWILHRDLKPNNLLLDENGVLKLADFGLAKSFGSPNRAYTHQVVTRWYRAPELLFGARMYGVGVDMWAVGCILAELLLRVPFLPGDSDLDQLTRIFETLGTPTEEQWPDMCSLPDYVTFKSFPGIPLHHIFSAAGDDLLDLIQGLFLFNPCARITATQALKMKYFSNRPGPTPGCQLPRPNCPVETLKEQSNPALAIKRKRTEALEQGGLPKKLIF
T1 sequence (P51946 whole entry partner): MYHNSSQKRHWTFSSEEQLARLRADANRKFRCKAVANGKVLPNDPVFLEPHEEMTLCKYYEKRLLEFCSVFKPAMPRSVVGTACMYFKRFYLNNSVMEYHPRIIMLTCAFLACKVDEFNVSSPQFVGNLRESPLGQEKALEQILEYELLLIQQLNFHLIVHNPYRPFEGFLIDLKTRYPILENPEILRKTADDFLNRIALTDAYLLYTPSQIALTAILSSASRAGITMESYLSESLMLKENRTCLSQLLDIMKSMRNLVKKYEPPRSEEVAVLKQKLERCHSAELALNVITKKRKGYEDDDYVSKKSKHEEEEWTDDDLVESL
T1 sequence (P51948 whole entry partner): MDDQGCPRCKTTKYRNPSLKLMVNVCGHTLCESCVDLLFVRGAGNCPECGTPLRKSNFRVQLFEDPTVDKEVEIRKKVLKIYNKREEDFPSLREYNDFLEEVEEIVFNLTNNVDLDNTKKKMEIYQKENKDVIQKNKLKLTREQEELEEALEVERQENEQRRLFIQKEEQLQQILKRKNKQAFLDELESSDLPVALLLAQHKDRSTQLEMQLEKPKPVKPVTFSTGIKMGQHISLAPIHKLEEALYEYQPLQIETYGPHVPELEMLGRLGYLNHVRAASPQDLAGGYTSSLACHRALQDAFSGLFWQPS

| Structure (SMILES) | IC50 [µM] |
| --- | --- |
| Cc1ccc([C@H](C)Nc2nc(OC3CCN(C)CC3)nc3c(C(C)C)cnn23)cc1 [(VII-ab), (S)-8-isopropyl-2-((1-methylpiperidin-4-yl)oxy)-N-(1-(p-tolyl)ethyl)pyrazolo[1,5-a][1,3,5]triazin-4-amine] | 0.01 to 0.03 |
| CC(C)C[C@H](Nc1nc(O[C@@H]2CCCNC2)nc2c(C(C)C)cnn12)c1ccccc1 [(VII-u), 8-isopropyl-N-((S)-3-methyl-1-phenylbutyl)-2-((R)-piperidin-3-yloxy)pyrazolo[1,5-a][1,3,5]triazin-4-amine] | 0.03 to 0.1 |
| CC(C)c1cnn2c(N[C@@H](C)c3ccccc3)nc(N3CCC(N)CC3)nc12 [(VIII-b), (S)-2-(4-aminopiperidin-1-yl)-8-isopropyl-N-(1-phenylethyl)pyrazolo[1,5-a][1,3,5]triazin-4-amine] | 0.01 to 0.03 |
| CC(C)c1cnn2c(N[C@@H](C)c3ccccc3)nc(OC[C@H]3CCCN3)nc12 [(VII-l), 8-isopropyl-N-((S)-1-phenylethyl)-2-((R)-pyrrolidin-2-ylmethoxy)pyrazolo[1,5-a][1,3,5]triazin-4-amine] | 0.03 to 0.1 |
| CC(C)c1cnn2c(N[C@@H](C)c3ccccc3)nc(OC3CCN(C)C3)nc12 (stereo partly drawn) [(VII-f), 8-isopropyl-2-((1-methylpyrrolidin-3-yl)oxy)-N-((S)-1-phenylethyl)pyrazolo[1,5-a][1,3,5]triazin-4-amine] | 0.01 to 0.03 |
| COc1cccc([C@H](C)Nc2nc(N3CCC(N)CC3)nc3c(C(C)C)cnn23)c1 [(VIII-e), (S)-2-(4-aminopiperidin-1-yl)-8-isopropyl-N-(1-(3-methoxyphenyl)ethyl)pyrazolo[1,5-a][1,3,5]triazin-4-amine] | < 0.01 |
| COc1ccccc1[C@H](C)Nc1nc(OC2CCN(C)CC2)nc2c(C(C)C)cnn12 [(VII-z), (S)-8-isopropyl-N-(1-(2-methoxyphenyl)ethyl)-2-((1-methylpiperidin-4-yl)oxy)pyrazolo[1,5-a][1,3,5]triazin-4-amine] | < 0.01 |

Continued, values first:

| IC50 [µM] | Structure (SMILES) |
| --- | --- |
| < 0.01 | COc1cccc([C@H](C)Nc2nc([S+]([O-])C3CCNCC3)nc3c(C(C)C)cnn23)c1 (stereo partly drawn) [(X-b), 8-isopropyl-N-((S)-1-(3-methoxyphenyl)ethyl)-2-(piperidin-4-ylsulfinyl)pyrazolo[1,5-a][1,3,5]triazin-4-amine] |
| < 0.01 | CC(C)c1cnn2c(N[C@@H](C)c3ccccc3)nc(OC3CCN(CCCN)CC3)nc12 [(VII-d), (S)-2-((1-(3-aminopropyl)piperidin-4-yl)oxy)-8-isopropyl-N-(1-phenylethyl)pyrazolo[1,5-a][1,3,5]triazin-4-amine] |
| < 0.01 | CC(C)c1cnn2c(N[C@@H](C)c3ccccc3)nc(OCC3CCNCC3)nc12 [(VII-c), (S)-8-isopropyl-N-(1-phenylethyl)-2-(piperidin-4-ylmethoxy)pyrazolo[1,5-a][1,3,5]triazin-4-amine] |
| < 0.01 | CC(C)c1cnn2c(N[C@@H](C)c3ccccc3)nc(OC3CCNCC3)nc12 [(VII-b), (S)-8-isopropyl-N-(1-phenylethyl)-2-(piperidin-4-yloxy)pyrazolo[1,5-a][1,3,5]triazin-4-amine] |
| < 0.01 | COc1ccccc1[C@H](C)Nc1nc(O[C@@H]2CCNC2)nc2c(C(C)C)cnn12 [(VII-n), 8-isopropyl-N-((S)-1-(2-methoxyphenyl)ethyl)-2-((R)-pyrrolidin-3-yloxy)pyrazolo[1,5-a][1,3,5]triazin-4-amine] |
| < 0.01 | CC(C)c1cnn2c(N[C@@H](C)c3ccccc3)nc(OCCC3CCNCC3)nc12 [(VII-g), (S)-8-isopropyl-N-(1-phenylethyl)-2-(2-(piperidin-4-yl)ethoxy)pyrazolo[1,5-a][1,3,5]triazin-4-amine] |
| < 0.01 | COc1ccccc1[C@H](C)Nc1nc(O[C@@H]2CCCNC2)nc2c(C(C)C)cnn12 [(VII-m), 8-isopropyl-N-((S)-1-(2-methoxyphenyl)ethyl)-2-((R)-piperidin-3-yloxy)pyrazolo[1,5-a][1,3,5]triazin-4-amine] |

same assay, conditions: Table 6; read-out: IC50 [nM] CDK7

| IC50 [µM] | Structure (SMILES) |
| --- | --- |
| < 0.01 | CC(C)c1cnn2c(NCc3ccccc3)nc(O[C@@H]3CCCNC3)nc12 [C-I, reference compound] |
